What was measured:
IL-23 [1] = test: IL-23 production (ELISA) in LPS-stimulated THP-1 cells, 2,4-D versus other chalcones, Example 2; assay type: cell-based, human; conditions: LPS-stimulated THP-1, 24 h
Description: Molecules tested. Natural 2,4-D, isolated and purified from Chloranthus spicatus (purity HPLC≥98%, Cat. No.: 129742-43-2), was purchased from BOC Science (Shirley, NY). Synthetic 2,4-D (purity HPLC≥98%) was obtained from YIWEI Biotech (Shanghai, China). 2′-hydroxychalcone (2′-HC, purity HPLC≥98%, Cat. No.: 42224-53-3), 4-hydroxychlcone (4-HC, purity HPLC≥98%, Cat. No.: 20426-12-4), 2′,2-dihydroxychalcone (2′,2-DHC, purity HPLC≥98%, Cat. No.: IDF00045_ALDRICH), 2′,3-dihydroxychalcone (2′,3-DHC, purity HPLC≥98%, Cat No.: IDF00047_ALDRICH), 2′,4-dihydroxychalcone (2′,4-DHC, purity HPLC≥98%, Cat. No.: PH011685_ALDRICH), 2′,5′-dihydroxychalcone (2′,5′-DHC, purity HPLC≥98%, No.: IDF00046-1G), and 2′,4′,4-trihydroxychalcone (2′,4′4-THC, purity HPLC≥98%, No.: 38986_SIAL) were purchased from Sigma. 2′,4′-dihydroxychalcone (2′,4′-DHC, purity HPLC≥98%, Cat. No. AB151736) was purchased from abcr GmbH (Karlsruhe, Germany). Isobavachalcone (IBC), 4′-hydroxy-2′6′-dimethoxychalcone (HMC), 2-trifluoromethyl-2′-methoxychalcone (TFM) and Hydroxysafflor yellow A (HYA) were also tested.
Cell culture. THP-1 cells were cultured in RPMI 1640 culture medium (Gibco) supplemented with 10% fetal bovine serum (FBS; Gibco, UK.), 0.05 mM 2-mercaptoethanol, and 1% penicillin/streptomycin. Cells were used in exponential growth phase, with culture medium being replaced with fresh medium 1 day prior to the experiment. The following day, THP-1 cells were plated into 24-well culture plates with a cell density about 800,000 cells/mL and 2 mL per well. 10 ng/mL LPS was used to stimulate the THP-1 cells. RPMI 1640 medium containing 10% FBS and 1% P/S was used as a normal control (NC). 10 mM stock solutions of compounds in DMSO were diluted to 20 μM with complete culture medium just before use. Experiments were performed in quadruplicate.
Enzyme linked immune-sorbent assay (ELISA). At 24 hours, after centrifugation at 300 g for 10 min., 0.5 mL of supernatant was collected and stored at −80° C. until use. IL-23 levels were determined in culture supernatants as described in Example 1.

IL-23 [2] = test: IL-23 production (ELISA of supernatant) in LPS-stimulated THP-1 cell culture, Examples 1 and 8; assay type: cell-based, human
Method: The THP-1 cell line (TIB-202) was obtained from the American Type Culture Collection (ATCC, USA), grown in RPMI 1640 culture medium (Gibco) supplemented with 10% fetal bovine serum (Gibco, UK), 50 U/mL penicillin-streptomycin (Gibco), and 0.05 mM 2-Mercaptoethanol (Gibco). Cultured cells were plated into culture plates in appropriate volumes with a cell density of 500,000 cells/mL.
PCR was performed in duplicate using SYBR Green qPCR master mix (Takara Biomedical Technology Co., Ltd, Dalian, China) on an ABI 7500 Real-Time PCR System (Thermo, USA). The cycling program was as follows: denaturation at 95° C. for 15 s, 40 cycles of 95° C. for 15 s and extension at 60° C. for 60 s, followed by melt curve generation. The ΔΔCT method was used to quantify relative mRNA levels as described in User Bulletin #2 for the ABI PRISM 7700 Sequence Detection System (Applied Biosystems, 2001). The primer sequences used in this study are 5′-[…]-3′ (forward), 5′-[…]-3′ (reverse) for human IL-23p19 (SEQ ID NOs: 4 and 5, respectively); and 5′-ACAGTCCATGCCATCACTG-3′ (forward) and 5′-AGTAGAGGCAGGGATGATG-3′ for human GAPDH as a reference (SEQ ID NOs: 6 and 7, respectively). 24 hours after culture and treatments, supernatants were collected and IL-23 levels measured using the IL-23 Human Uncoated ELISA Kit (ThermoFisher Scientific Inc., USA) according to the manufacturer's instructions. A Varioskan LUX microplate reader (Thermo Fisher, USA) was used for the assay and 4-parameter logistic regression was used for data analysis. Two duplicates per sample were performed and results were averaged.
The anti-IL-23 activity of 2,4-D was compared with the commercially prescribed nonsteroidal anti-inflammatory drugs (NSAIDs:[…], Ibuprofen, and Aspirin) in the LPS-stimulated THP-1 cell culture system described above (Example 1)).

[3] = system: MSU-induced knee joint edema; test: MSU-induced knee joint edema in mice; assay type: in vivo, mouse; conditions: 20 h; high dose i.p.: 2,4-D 100 mg/kg, CLC 1 mg/kg, DEX 0.5 mg/kg
Method: (§1) 2,4-D, isolated and purified from Chloranthus spicatus (purity≥98%), was purchased from BOC Science (Shirley, NY). Colchicine (CLC) (purity≥96%) and dexamethasone (DEX) (purity≥98%) were purchased from Sigma. Mice (six per group) were treated with 2,4-D (100 mg/kg or 20 mg/kg, i.p.), CLC (1 mg/kg or 0.2 mg/kg, i.p.), DEX (0.5 mg/kg or 0.1 mg/kg, i.p.), or vehicle (20% polyoxyethylenesorbitan monooleate (Tween 80) plus PBS) 30 min before intra-articular stimulus with MSU (100 μg/10 μL, i.a.). Six mice with intra-articular injection with PBS alone served as a negative control.
Preparation of monosodium urate crystal (MSU). MSU crystals were prepared as described previously (Ruiz-Miyazawa et al., 2017). Briefly, 800 mg of monosodium urate was dissolved in 155 ml of boiling milli-Q water containing 2N NaOH. After pH adjustment to 8.9, the solution was cooled gradually by stirring at room temperature and crystallized overnight at 4° C. Crystals were collected, and centrifuged at 3,000×g for 2 min at 4° C. The crystals were evaporated and sterilized by heating at 180° C. for 2 h and stored in a sterile environment until use. The load of endotoxin present in the MSU crystals was determined using a ToxinSensor^TM Single Test Kit (GenScript).
(§2) Induction of MSU-Induced Knee Joint Inflammation. Male ICR (CD-1) mice (35-45 g, 10-12 weeks) were purchased from VitalRiver Inc (Beijing, China) and were kept in an animal care facility under controlled temperature of 21±1° C., humidity, and on a light/dark cycle, with ad libitum access to water and standard laboratory chow diet. Animal care and handling procedures were approved by the Animal Ethics Committee of GZUCM (Guangzhou University of Chinese Medicine). All efforts were made to minimize animal suffering and to reduce the number of animals used. Joint inflammation was induced by the intra-articular (i.a.) administration of MSU (200 μg/20 μl) into the right and left knee joints of mice under inhaled 3% isoflurane anesthesia. Control animals received an injection (i.a.) of sterile PBS (20 μL).
Evaluation of Knee Joint Edema. Knee joint edema was determined with a caliper (Mitutoyo) before (zero time), and after the intra-articular injection with MSU at the times indicated. Knee joint edema was determined for each mouse by the difference between the time points indicated on figures and the zero time (Ruiz-Miyazawa et al, 2017). The edema value is represented as Amm/joint.
Statistical Analysis. Data were analyzed using GraphPad Prism statistical software (GraphPad Software, Inc., United States-500.288, version 5.0). Results are presented as means±SEM or SD of measurements made on 6 mice per group, with statistical significance determined by two-way ANOVA, comparing each group to the control (“Model”) group. For in vitro experiments, microassays were performed in quadruplicate. p<0.05 was considered significant (*p<0.05, **p<0.01, ***p<0.001).

[4] = system: MSU-induced leukocyte recruitment; test: MSU-induced leukocyte recruitment to the synovial cavity of knee joint; assay type: in vivo, mouse; conditions: 20 h; 2,4-D 100 mg/kg, CLC 1 mg/kg, DEX 0.5 mg/kg
Method: as §1, §2
Histopathological Analysis. Knee joint was collected 20 h after MSU injection, fixed with 10% paraformaldehyde in PBS, and then decalcified for 10 days with EDTA and embedded in paraffin for histological analysis. […] Results are expressed as leukocytes infiltrate (cell/field) counted at the inflammatory foci within synovial cavity as indicative of synovitis. […]
Statistical Analysis. Data were analyzed using GraphPad Prism statistical software (GraphPad Software, Inc., United States-500.288, version 5.0). Results are presented as means±SEM or SD of measurements made on 6 mice per group, with statistical significance determined by two-way ANOVA, comparing each group to the control (“Model”) group. […]

IL-1ß = test: MSU-induced IL-1ß in knee joint tissue (multiplex microassay); assay type: in vivo, mouse; conditions: 2,4-D 100 mg/kg, CLC 1 mg/kg, DEX 0.5 mg/kg
Method: (§3) Mice (six per group) were treated with 2,4-D (100 mg/kg or 20 mg/kg, i.p.), CLC (1 mg/kg or 0.2 mg/kg, i.p.), DEX (0.5 mg/kg or 0.1 mg/kg, i.p.), or vehicle (20% polyoxyethylenesorbitan monooleate (Tween 80) plus PBS) 30 min before intra-articular stimulus with MSU (100 μg/10 μL, i.a.). Six mice with intra-articular injection with PBS alone served as a negative control.
as §2
(§4) Cytokine Measurement. Mice were anesthetized and sacrificed. Knee joints were collected and frozen in liquid nitrogen. Samples were then homogenized in 500 μl of buffer containing protease inhibitors, centrifuged (3600 rpm, 4° C., 15 min) and supernatants were used to determine Th1/Th2/Th17 cytokine levels using a multiplex microassay (Qantibody® mouse TH17 Array 1 kit, Cat. No.: QAM-TH17-1; RayBiotech, Norcross, GA). Results were expressed as picograms (pg) of cytokine/mg of tissue.
(§5) Statistical Analysis. […] For in vitro experiments, microassays were performed in quadruplicate. p<0.05 was considered significant (*p<0.05, **p<0.01, ***p<0.001).

IL-6 = test: MSU-induced IL-6 in knee joint tissue (multiplex microassay); assay type: in vivo, mouse; conditions: 2,4-D 100 mg/kg, CLC 1 mg/kg, DEX 0.5 mg/kg
Method: as §3, §2, §4, §5

IL-10 = test: MSU-induced IL-10 in knee joint tissue (multiplex microassay); assay type: in vivo, mouse; conditions: CLC 1 mg/kg
Method: as §3, §2, §4, §5

TNF-alpha = test: MSU-induced TNF-alpha in knee joint tissue (multiplex microassay); assay type: in vivo, mouse; conditions: 2,4-D 100 mg/kg, CLC 1 mg/kg, DEX 0.5 mg/kg
Method: as §3, §2, §4, §5

[5] = LPS-stimulated THP-1, Example 8

Question: Hydroxysafflor yellow A [HYA] was tested. Which “inhibition of IL-23 production” value (IL-23 [1]) did it give?
Answer: do not inhibit

Question: With `CC(C)Cc1ccc(C(C)C(=O)O)cc1` (centres unmarked) [Ibuprofen, reference compound] as the molecule, how does the “reduction of IL-23 release in supernatant” value (IL-23 [2]; [5]) read?
Answer: 20-25%

Question: With `CC(C)=CCc1c(O)ccc(C(=O)/C=C/c2ccc(O)cc2)c1O` [IBC, Isobavachalcone] as the molecule, how does the “inhibition of IL-23 production” value (IL-23 [1]) read?
Answer: do not inhibit

Question: `COc1cc2c(c(OC)c1OC)-c1ccc(OC)c(=O)cc1[C@@H](NC(C)=O)CC2` [CLC, Colchicine] was tested. Which “reduction of MSU-induced knee joint edema” value [3] did it give?
Answer: 32.6%

Question: What about the “reduction of MSU-induced leukocyte recruitment” value [4] of the same molecule?
Answer: 1.6 fold

Question: What about the “decrease of IL-1ß in knee joint tissue” value (IL-1ß) of the same molecule?
Answer: no effect

Question: And the “decrease of IL-6 in knee joint tissue” value (IL-6)?
Answer: no effect

Question: What about the “increase of the expression of IL-10 in knee joint tissue” value (IL-10) of the same molecule?
Answer: 1.5 fold

Question: And the “decrease of TNF-alpha in knee joint tissue” value (TNF-alpha)?
Answer: no effect

Question: How did the “activity of (E) isomer relative to (Z) isomer” value (IL-23 [2]) turn out when `COc1cc(O)c(OC)c(O)c1C(=O)/C=C/c1ccccc1` [(E) isomer, 2′,4′-dihydroxy-3′,6′-dimethoxychalcone] was run?
Answer: 5 fold

Question: What about the “inhibition of IL-23, (E) isomer compared with (Z) isomer” value (IL-23 [2]; LPS-stimulated THP-1 cell culture) of the same molecule?
Answer: greater

Question: With `COc1cc(O)cc(OC)c1C(=O)C=Cc1ccccc1` [HMC, 4′-hydroxy-2′6′-dimethoxychalcone] as the molecule, how does the “inhibition of IL-23 production” value (IL-23 [1]) read?
Answer: do not inhibit

Question: Which “change of IL-23 production/release in supernatant” value (IL-23 [2]; [5]) does the source give for `CC(=O)Oc1ccccc1C(=O)O` [Aspirin, reference compound] here?
Answer: no significant change

Question: How did the IC50 (IL-23 [1]; Homo sapiens, read-out: IC50 of inhibition of IL-23) turn out when `COc1cc(O)c(OC)c(O)c1C(=O)/C=C/c1ccccc1` [naturally isolated 2,4-D, 2′,4′-dihydroxy-3′,6′-dimethoxychalcone] was run?
Answer: ~2.1 µM
